Legend:
[1] = tested on: Monoclonal antibody (mAb); experiment: Binding affinity against human monoclonal antibody (mAb)-11E6
[2] = tested on: Monoclonal antibody (mAb); experiment: Binding affinity against human monoclonal antibody (mAb)-1B3
[3] = tested on: Monoclonal antibody (mAb); experiment: Binding affinity against human monoclonal antibody (mAb)-5C2
[4] = tested on: Monoclonal antibody (mAb); experiment: Binding affinity against human monoclonal antibody (mAb)-7F2
[5] = target: Monoclonal antibody (mAb); experiment: Binding affinity against Monoclonal antibody mAB-1B3 using [3H]digoxin as radioligand
[6] = tested on: Monoclonal antibody (mAb); experiment: Binding affinity against murine monoclonal antibody (mAb)-40-50
[7] = target: Monoclonal antibody (mAb); experiment: Kinetic parameter against Monoclonal antibody mAB-1B3
[8] = target: Monoclonal antibody (mAb); experiment: Binding affinity against Monoclonal antibody mAB-1B3 using [3H]digitoxin as radioligand

Compound | IC50 ratio [1] | IC50 ratio [2] | IC50 ratio [3] | IC50 ratio [4] | Ki [5] | Relative Ki [6] | Kd [7] | Ki [8]
CC(=O)[C@H]1CC[C@H]2[C@@H]3CCC4=CC(=O)CC[C@]4(C)[C@H]3CC[C@]12C [PROGESTERONE] | 100 | 36000 | 55 | 69 | 36000 nM |  |  | 
C[C@@H]1O[C@H](O[C@H]2CC[C@@]3(C)[C@H](CC[C@@H]4[C@@H]3CC[C@]3(C)[C@@H](C5=CC(=O)OC5)CC[C@]43O)C2)[C@@H](O)[C@@H](O)[C@@H]1O | 29 | 40 | 21 | 22 |  | 0.6 |  | 
C[C@@H]1O[C@@H](O[C@H]2C[C@@H](O)[C@]3(CO)[C@H]4[C@H](O)C[C@]5(C)[C@@H](C6=CC(=O)OC6)CC[C@]5(O)[C@@H]4CC[C@]3(O)C2)[C@H](O)[C@H](O)[C@H]1O | 38000 | 4100 | No inhibition | 39000 |  | 7 |  | 
CC(=O)O[C@H]1CC[C@@]2(C)[C@H](CC[C@@H]3[C@@H]2C[C@@H](O)[C@]2(C)[C@@H](C4=CC(=O)OC4)CC[C@]32O)C1 | 96 | 70 | 140 | 110 |  | 0.7 |  | 
C[C@H]1O[C@@H](O[C@H]2[C@@H](O)C[C@H](O[C@H]3[C@@H](O)C[C@H](O[C@H]4CC[C@@]5(C)[C@H](CC[C@@H]6[C@@H]5C[C@@H](O)[C@]5(C)[C@@H](C7=CC(=O)OC7)CC[C@]65O)C4)O[C@@H]3C)O[C@@H]2C)C[C@H](O)[C@@H]1O [DIGOXIN] | 1 | 1 | 1 | 1 | 1.2 nM | 1 | 3.1 nM | 0.8 nM
C[C@H]1O[C@@H](O[C@H]2CC[C@@]3(C)[C@H](CC[C@@H]4[C@@H]3C[C@@H](O)[C@]3(C)[C@@H](C5=CC(=O)OC5)CC[C@]43O)C2)C[C@H](O)[C@@H]1O | 0.9 | 5.9 | 1.3 | 1 |  | 0.6 |  | 
C[C@]12CC[C@H](O)C[C@H]1CC[C@@H]1[C@@H]2CC[C@]2(C)[C@@H](C3=CC(=O)OC3)[C@@H](O)C[C@]12O | 2100 | 4700 | 2700 | 2000 |  | 93 |  | 
C[C@]12CC[C@H]3[C@@H](CC[C@]4(O)C[C@@H](O)CC[C@]34CO)[C@@]1(O)CC[C@@H]2C1=CC(=O)OC1 |  |  |  |  |  | 4 |  | 
CC(=O)O[C@H]1CC[C@]2(C=O)[C@H]3CC[C@]4(C)[C@@H](C5=CC(=O)OC5)CC[C@]4(O)[C@@H]3CC[C@]2(O)C1 | 18 | 600 | 44 | 17 |  | 10 |  | 
C[C@H]1O[C@@H](O[C@H]2[C@@H](O)C[C@H](O[C@H]3[C@@H](O)C[C@H](O[C@H]4CC[C@@]5(C)[C@H](CC[C@@H]6[C@@H]5CC[C@]5(C)[C@@H](C7=CC(=O)OC7)CC[C@]65O)C4)O[C@@H]3C)O[C@@H]2C)C[C@H](O)[C@@H]1O [DIGITOXIN] | 1.7 | 0.3 | 10 | 8 | 0.1 nM | 1 | 0.6 nM | 0.2 nM
C[C@]12CC[C@H](O)C[C@H]1CC[C@@H]1[C@@H]2C[C@@H](O)[C@]2(C)[C@@H](C3=CC(=O)OC3)CC[C@]12O [DIGOXIGENIN] | 6.2 | 2700 | 2.9 | 4.6 | 3100 nM | 2 |  | 1700 nM
CO[C@H]1[C@H](O)[C@H](O[C@H]2CC[C@@]3(C)[C@H](CC[C@@H]4[C@@H]3CC[C@]3(C)[C@@H](C5=CC(=O)OC5)CC[C@]43O)C2)O[C@@H](C)[C@@H]1O | 17 | 69 | 21 | 9.5 |  | 1 |  | 
C[C@]12C[C@@H](O)[C@H]3[C@@H](CC[C@]4(O)C[C@@H](O)C[C@@H](O)[C@]34CO)[C@@]1(O)CC[C@@H]2C1=CC(=O)OC1 | 6600 | 52000 | No inhibition | 13000 |  | 9 |  | 
CC(=O)O[C@H]1C[C@]2(O)[C@@H]3CC[C@@H]4C[C@@H](O[C@@H]5C[C@H](O)[C@H](O[C@H]6C[C@H](O)[C@H](O[C@H]7C[C@H](O)[C@H](O)[C@@H](C)O7)[C@@H](C)O6)[C@@H](C)O5)CC[C@]4(C)[C@H]3CC[C@]2(C)[C@H]1C1=CC(=O)OC1 | 400 | 49 | 290 | 330 |  | 58 |  | 
C[C@]12CC[C@H]3[C@@H](CC[C@]4(O)C[C@@H](O)CC[C@]34C=O)[C@@]1(O)CC[C@@H]2C1=CC(=O)OC1 | 66 | 3000 | 470 | 84 |  | 4 |  | 
C[C@H]1O[C@@H](O[C@H]2[C@@H](O)C[C@H](O[C@H]3[C@@H](O)C[C@@H](O[C@H]4CC[C@@]5(C)[C@H](CC[C@@H]6[C@@H]5C[C@@H](O)[C@]5(C)[C@@H](C7=CC(=O)OC7)[C@@H](O)C[C@]65O)C4)O[C@@H]3C)O[C@@H]2C)C[C@H](O)[C@@H]1O |  |  |  |  |  | 33 |  | 
C[C@H]1O[C@@H](O[C@H]2[C@@H](O)C[C@H](O[C@H]3[C@@H](O)C[C@H](O[C@H]4CC[C@@]5(C)[C@H](CC[C@@H]6[C@@H]5CC[C@]5(C)[C@@H](C7=CC(=O)OC7)[C@@H](O)C[C@]65O)C4)O[C@@H]3C)O[C@@H]2C)C[C@H](O)[C@@H]1O | 73 | 11 | 130 | 81 |  | 16 |  | 
CO[C@H]1[C@@H](O)[C@@H](C)O[C@@H](O[C@H]2CC[C@@]3(C)[C@H](CC[C@@H]4[C@@H]3CC[C@]3(C)[C@@H](C5=CC(=O)OC5)C(O)C[C@]43O)C2)[C@@H]1O (stereo partly specified) |  |  |  |  |  | 35 |  | 
CC(=O)O[C@H]1C[C@]2(O)[C@@H]3CC[C@@H]4C[C@@H](O)CC[C@]4(C)[C@H]3CC[C@]2(C)[C@H]1C1=CC(=O)OC1 |  |  |  |  |  | 8600 |  | 
C[C@H]1O[C@@H](O[C@H]2[C@@H](O)C[C@H](O[C@H]3[C@@H](O)C[C@@H](O[C@H]4CC[C@@]5(C)[C@H](CC[C@@H]6[C@@H]5C[C@@H](O)[C@]5(C)[C@@H](C7=CC(=O)OC7)CC[C@]65O)C4)O[C@@H]3C)O[C@@H]2C)C[C@H](O)[C@@H]1O |  |  |  |  |  | 280 |  | 
C[C@]12CC[C@H](O)C[C@H]1CC[C@@H]1[C@@H]2CC[C@]2(C)[C@@H](C3=CC(=O)OC3)CC[C@]12O [DIGITOXIGENIN] | 14 | 1800 | 14 | 16 | 1000 nM | 2 |  | 880 nM
CC(=O)O[C@@H]1C[C@H]2[C@@H](CC[C@@H]3C[C@@H](O[C@H]4C[C@H](O)[C@H](O[C@H]5C[C@H](O)[C@H](O[C@H]6C[C@H](O)[C@H](O)[C@@H](C)O6)[C@@H](C)O5)[C@@H](C)O4)CC[C@@]32C)[C@@]2(O)CCC(C3=CC(=O)OC3)[C@@]12C (stereo partly specified) |  |  |  |  |  | 0.5 |  | 
CO[C@@H]1[C@H](O)[C@@H](O[C@@H]2C[C@H]3CC[C@@H]4[C@H](CC[C@]5(C)[C@@H](C6=CC(=O)OC6)CC[C@]45O)[C@@]3(C)[C@H](O)C2)O[C@@H](C)[C@@H]1O |  |  |  |  |  | 0.5 |  | 
C[C@]12CC[C@H](O)C[C@H]1CC[C@@H]1[C@@H]2C[C@@H](O)[C@]2(C)[C@@H]([C@@H]3COC(=O)C3)CC[C@]12O |  |  |  |  |  | 300 |  | 
CC(=O)O[C@H]1CC[C@@]2(C)[C@H](CC[C@@H]3[C@@H]2CC[C@]2(C)[C@@H](C4=CC(=O)OC4)[C@@H](O)C[C@]32O)C1 |  |  |  |  |  | 74 |  | 
CO[C@H]1C[C@H](O[C@H]2CC[C@@]3(C)[C@H](CC[C@@H]4[C@@H]3CC[C@]3(C)[C@@H](C5=CC(=O)OC5)[C@@H](OC(C)=O)C[C@]43O)C2)O[C@@H](C)[C@@H]1O | 3100 | 180 | No inhibition | 3200 |  | 200 |  | 
CC(=O)O[C@H]1C[C@]2(O)[C@@H]3CC[C@@H]4C[C@@H](O[C@H]5C[C@H](O)[C@H](O)[C@@H](C)O5)CC[C@]4(C)[C@H]3CC[C@]2(C)[C@H]1C1=CC(=O)OC1 |  |  |  |  |  | 4 |  | 
C[C@H]1O[C@@H](O[C@H]2[C@@H](O)C[C@H](O[C@H]3[C@@H](O)C[C@H](O[C@H]4CC[C@@]5(C)[C@H](CC[C@@H]6[C@@H]5CC[C@]5(C)[C@@H](C7=CC(=O)OC7)[C@@H](OC=O)C[C@]65O)C4)O[C@@H]3C)O[C@@H]2C)C[C@H](O)[C@@H]1O |  |  |  |  |  | 35 |  | 

Source: ChEMBL document CHEMBL1135516, “Three-dimensional quantitative structure-activity relationship analysis of ligand binding to human sequence antidigoxin monoclonal antibodies using comparative molecular field analysis” (J Med Chem, 2002)
